Test results as given in the supplement of paper PMC4862054.

Assays:
Assay in all cases: normalised viability (% of control), CellTiter-Blue; higher = more viable cells (about 100 = DMSO control)
Settings in all cases: incubation time: 72 h
HDQ-P1 [1] = tested on: HDQ-P1
Procedure, shortened: (§1)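 The reported figure is normalised viability at a single listed concentration of the series. Breast cancer cell lines (20 µl suspension) went onto 384-well plates holding compound in 5 µl medium for 72 h. CellTiter-Blue (2.5 µl, 2 h, 37 °C) was read by fluorescence at 560/590 nm, and each plate was scaled to vehicle at 100 and a positive kill control at 0.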

MDA-MB-436 [2] = tested on: MDA-MB-436
Procedure, shortened: as §1

MDA-MB-468 [3] = tested on: MDA-MB-468
Procedure, shortened: as §1

MFM-223 [4] = tested on: MFM-223
Procedure, shortened: as §1

MDA-MB-453 [5] = tested on: MDA-MB-453
Procedure, shortened: as §1

HCC1599 [6] = tested on: HCC1599
Procedure, shortened: as §1

CAL-148 [7] = tested on: CAL-148
Procedure, shortened: as §1

CAL-85-1 [8] = tested on: CAL-85-1
Procedure, shortened: as §1

CAL-51 [9] = tested on: CAL-51
Procedure, shortened: as §1

HCC1937 [10] = tested on: HCC1937
Procedure, shortened: as §1

HCC1143 [11] = tested on: HCC1143
Procedure, shortened: as §1

SK-BR-3 [12] = tested on: SK-BR-3
Procedure, shortened: as §1

BT-549 [13] = tested on: BT-549
Procedure, shortened: as §1

CAL-120 [14] = tested on: CAL-120
Procedure, shortened: as §1

Hs578T [15] = tested on: Hs578T
Procedure, shortened: as §1

MDA-MB-231 [16] = tested on: MDA-MB-231
Procedure, shortened: as §1

HDQ-P1 [17] = tested on: HDQ-P1; remark: listed apart in the source
Procedure: (§2)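 DSRT, CellTiter-Blue viability, 72 h incubation. Signal is normalised to DMSO and benzethonium chloride controls. Value is the normalised response at dose 3.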

MDA-MB-436 [18] = tested on: MDA-MB-436; remark: listed apart in the source
Procedure: as §2

BT-474 = tested on: BT-474
Procedure: as §2

MDA-MB-468 [19] = tested on: MDA-MB-468; remark: listed apart in the source
Procedure: as §2

MFM-223 [20] = tested on: MFM-223; remark: listed apart in the source
Procedure: as §2

MDA-MB-453 [21] = tested on: MDA-MB-453; remark: listed apart in the source
Procedure: as §2

HCC1599 [22] = tested on: HCC1599; remark: listed apart in the source
Procedure: as §2

DU-4475 = tested on: DU-4475
Procedure: as §2

CAL-148 [23] = tested on: CAL-148; remark: listed apart in the source
Procedure: as §2

CAL-85-1 [24] = tested on: CAL-85-1; remark: listed apart in the source
Procedure: as §2

CAL-51 [25] = tested on: CAL-51; remark: listed apart in the source
Procedure: as §2

HCC1937 [26] = tested on: HCC1937; remark: listed apart in the source
Procedure: as §2

HCC1143 [27] = tested on: HCC1143; remark: listed apart in the source
Procedure: as §2

SK-BR-3 [28] = tested on: SK-BR-3; remark: listed apart in the source
Procedure: as §2

BT-549 [29] = tested on: BT-549; remark: listed apart in the source
Procedure: as §2

CAL-120 [30] = tested on: CAL-120; remark: listed apart in the source
Procedure: as §2

Hs578T [31] = tested on: Hs578T; remark: listed apart in the source
Procedure: as §2

MDA-MB-231 [32] = tested on: MDA-MB-231; remark: listed apart in the source
Procedure: as §2

Structure (SMILES): O=C1NC(=O)[C@@H](c2cn3c4c(cccc24)CCC3)[C@@H]1c1c[nH]c2ccccc12 [Tivantinib]
- normalised viability (HDQ-P1 [1]; 3 nM): 120%
- normalised viability (MDA-MB-436 [2]; 100 nM): 56.6%
- normalised viability (MDA-MB-468 [3]; 100 nM): 103%
- normalised viability (MFM-223 [4]; 100 nM): 87.2%
- normalised viability (MDA-MB-453 [5]; 3 nM): 108%
- normalised viability (HCC1599 [6]; 100 nM): 95.7%
- normalised viability (CAL-148 [7]; 3 nM): 93%
- normalised viability (CAL-85-1 [8]; 3 nM): 95.7%
- normalised viability (CAL-51 [9]; 3 nM): 104%
- normalised viability (HCC1937 [10]; 100 nM): 64.6%
- normalised viability (HCC1143 [11]; 100 nM): 93%
- normalised viability (SK-BR-3 [12]; 100 nM): 99.9%
- normalised viability (BT-549 [13]; 100 nM): 96.5%
- normalised viability (CAL-120 [14]; 100 nM): 79.8%
- normalised viability (Hs578T [15]; 100 nM): 114%
- normalised viability (MDA-MB-231 [16]; 100 nM): 105%
- normalised viability (HDQ-P1 [17]; 1 nM): 109%
- normalised viability (MDA-MB-436 [18]; 10 nM): 101%
- normalised viability (BT-474; 10 nM): 109%
- normalised viability (MDA-MB-468 [19]; 10 nM): 104%
- normalised viability (MFM-223 [20]; 10 nM): 105%
- normalised viability (MDA-MB-453 [21]; 1 nM): 108%
- normalised viability (HCC1599 [22]; 10 nM): 98.4%
- normalised viability (DU-4475; 1 nM): 97.8%
- normalised viability (CAL-148 [23]; 1 nM): 107%
- normalised viability (CAL-85-1 [24]; 1 nM): 105%
- normalised viability (CAL-51 [25]; 1 nM): 106%
- normalised viability (HCC1937 [26]; 10 nM): 101%
- normalised viability (HCC1143 [27]; 10 nM): 87.8%
- normalised viability (SK-BR-3 [28]; 10 nM): 77.3%
- normalised viability (BT-549 [29]; 10 nM): 111%
- normalised viability (CAL-120 [30]; 10 nM): 90.8%
- normalised viability (Hs578T [31]; 10 nM): 86.5%
- normalised viability (MDA-MB-231 [32]; 10 nM): 116%

Structure (SMILES): CC[C@]1(O)C[C@H]2CN(CCc3c([nH]c4ccccc34)[C@@](C(=O)OC)(c3cc4c(cc3OC)N(C=O)[C@H]3[C@@](O)(C(=O)OC)[C@H](OC(C)=O)[C@]5(CC)C=CCN6CC[C@]43[C@@H]65)C2)C1 [Vincristine]
- normalised viability (HDQ-P1 [1]; 3 nM): 91.3%
- normalised viability (HDQ-P1 [1]; 30 nM): 58.7%
- normalised viability (MDA-MB-436 [2]; 100 nM): 35.4%
- normalised viability (MDA-MB-436 [2]; 1000 nM): 39.5%
- normalised viability (MDA-MB-468 [3]; 100 nM): 33.4%
- normalised viability (MDA-MB-468 [3]; 1000 nM): 33.2%
- normalised viability (MFM-223 [4]; 100 nM): 40.2%
- normalised viability (MFM-223 [4]; 1000 nM): 28.1%
- normalised viability (MDA-MB-453 [5]; 3 nM): 92.1%
- normalised viability (MDA-MB-453 [5]; 30 nM): 22.6%
- normalised viability (HCC1599 [6]; 100 nM): 59.3%
- normalised viability (HCC1599 [6]; 1000 nM): 48%
- normalised viability (CAL-148 [7]; 3 nM): 88.5%
- normalised viability (CAL-148 [7]; 30 nM): 23.2%
- normalised viability (CAL-85-1 [8]; 3 nM): 89.9%
- normalised viability (CAL-85-1 [8]; 30 nM): 33%
- normalised viability (CAL-51 [9]; 3 nM): 99%
- normalised viability (CAL-51 [9]; 30 nM): 72.1%
- normalised viability (HCC1937 [10]; 100 nM): 13.8%
- normalised viability (HCC1937 [10]; 1000 nM): 15.1%
- normalised viability (HCC1143 [11]; 100 nM): 38.8%
- normalised viability (HCC1143 [11]; 1000 nM): 35.8%
- normalised viability (SK-BR-3 [12]; 100 nM): 17.1%
- normalised viability (SK-BR-3 [12]; 1000 nM): 17.2%
- normalised viability (BT-549 [13]; 100 nM): 22.3%
- normalised viability (BT-549 [13]; 1000 nM): 16.2%
- normalised viability (CAL-120 [14]; 100 nM): 19.3%
- normalised viability (CAL-120 [14]; 1000 nM): 19.2%
- normalised viability (Hs578T [15]; 100 nM): 17.7%
- normalised viability (Hs578T [15]; 1000 nM): 16.8%
- normalised viability (MDA-MB-231 [16]; 100 nM): 15.5%
- normalised viability (MDA-MB-231 [16]; 1000 nM): 14.3%
- normalised viability (HDQ-P1 [17]; 1 nM): 109%
- normalised viability (HDQ-P1 [17]; 10 nM): 90.7%
- normalised viability (MDA-MB-436 [18]; 10 nM): 52.4%
- normalised viability (MDA-MB-436 [18]; 100 nM): 44.9%
- normalised viability (BT-474; 10 nM): 46.2%
- normalised viability (BT-474; 100 nM): 57.2%
- normalised viability (MDA-MB-468 [19]; 10 nM): 50.6%
- normalised viability (MDA-MB-468 [19]; 100 nM): 32.1%
- normalised viability (MFM-223 [20]; 10 nM): 59.8%
- normalised viability (MFM-223 [20]; 100 nM): 39.5%
- normalised viability (MDA-MB-453 [21]; 1 nM): 103%
- normalised viability (MDA-MB-453 [21]; 10 nM): 31.6%
- normalised viability (HCC1599 [22]; 10 nM): 93.5%
- normalised viability (HCC1599 [22]; 100 nM): 51.1%
- normalised viability (DU-4475; 1 nM): 102%
- normalised viability (DU-4475; 10 nM): 78.8%
- normalised viability (CAL-148 [23]; 1 nM): 91.3%
- normalised viability (CAL-148 [23]; 10 nM): 90.2%
- normalised viability (CAL-85-1 [24]; 1 nM): 96.5%
- normalised viability (CAL-85-1 [24]; 10 nM): 61.1%
- normalised viability (CAL-51 [25]; 1 nM): 108%
- normalised viability (CAL-51 [25]; 10 nM): 87.8%
- normalised viability (HCC1937 [26]; 10 nM): 33.6%
- normalised viability (HCC1937 [26]; 100 nM): 17.8%
- normalised viability (HCC1143 [27]; 10 nM): 34.2%
- normalised viability (HCC1143 [27]; 100 nM): 40.4%
- normalised viability (SK-BR-3 [28]; 10 nM): 15.6%
- normalised viability (SK-BR-3 [28]; 100 nM): 15.8%
- normalised viability (BT-549 [29]; 10 nM): 29.3%
- normalised viability (BT-549 [29]; 100 nM): 25.2%
- normalised viability (CAL-120 [30]; 10 nM): 22.9%
- normalised viability (CAL-120 [30]; 100 nM): 20%
- normalised viability (Hs578T [31]; 10 nM): 16.6%
- normalised viability (Hs578T [31]; 100 nM): 19.3%
- normalised viability (MDA-MB-231 [32]; 10 nM): 29.5%
- normalised viability (MDA-MB-231 [32]; 100 nM): 16.1%
